From patent US20060281100A1, “Thiotriphosphate nucleotide dye terminators” (priority 2005, published 2006)

Experiment: Spectral measurements: absorbance and emission spectra, Beckman DU7400 spectrophotometer, water media
Format: physicochemical
Protocol: Unless otherwise stated, ultraviolet spectra (UV) were recorded for samples dissolved in MeOH or water contained in a one cm path length quartz cell using a Beckman DU-7400 spectrophotometer.

- Abs (H2O), Cyanine Dyes (absorbance maximum of the free cyanine dye in water): 649 nm
- Em (H2O) (emission maximum in water, column stands after the cyanine dye columns): 675 nm
SMILES: CCN1/C(=C/C=C/C=C/C2=[N+](CCCCCC(=O)O)c3ccc(S(=O)(=O)O)cc3C2(C)C)C(C)(C)c2cc(S(=O)(=O)[O-])ccc21 [Cy5]
